Common to all, as to assay type: functional, Homo sapiens
What all share (conditions): Homo sapiens, read-out: Cell Viability; for viability at 10 µM: Concentration 10 uM; for viability at 1 µM: Concentration 1 uM

Test [1] deals with Colon cancer organoid. Nature of the test: Targeting of F14 CAF-induced therapy resistance in O14 CRC organoid-stroma co-culture. Cell viability is reported with Gefitinib.
In test [2] the test system is Colon cancer organoid. Nature of the test: Targeting of F14 CAF-induced therapy resistance in O14 CRC organoid-stroma co-culture. Cell viability is reported without Gefitinib.
Test [3] deals with Colon cancer organoid. Nature of the test: Targeting of F14 CAF-induced therapy resistance in O23 CRC organoid-stroma co-culture. Cell viability is reported without Gefitinib.
For test [4], the system named is Colon cancer organoid. Description: Targeting of F14 CAF-induced therapy resistance in O23 CRC organoid-stroma co-culture. Cell viability is reported with SN-38.
The subject of test [5] is Colon cancer organoid. Description: Targeting of F14 CAF-induced therapy resistance in O23 CRC organoid-stroma co-culture. Cell viability is reported with Gefitinib.

Broadly, the viability is a read-out of living cells in per cent, often relative to untreated cells. Regarding `COc1ccc2c(c1)O[C@@H](c1ccc(OC)c(OC)c1)C[C@H]2NC(=O)C1(c2ccc3c(c2)OC(F)(F)O3)CC1` [A-1596586], the viability at 10 µM came out at 44.6% with Colon cancer organoid [1]; 121% in the test on Colon cancer organoid [2]; 129% in the test with Colon cancer organoid [3]; 51.3% in the test with Colon cancer organoid [4]; 42.2% with Colon cancer organoid [5].
Turning to `CCCOc1ccc([C@@H]2[C@@H](C(=O)O)[C@H](c3ccc4c(c3)OCO4)CN2CC(=O)Nc2c(CC)cccc2CC)cc1` [A-1806262], the viability at 1 µM was 47.8% with Colon cancer organoid [1]; 79.9% in the test with Colon cancer organoid [2]; 85% with Colon cancer organoid [3]; 54.5% in the test on Colon cancer organoid [4]; 38.9% in the test with Colon cancer organoid [5].
`CCNC(=O)c1cc2c(-c3cc(C(C)(C)O)ccc3Oc3c(C)cc(F)cc3C)cn(C)c(=O)c2[nH]1` [ABBV-744]: the viability at 10 µM in the test on Colon cancer organoid [1] was 14.3%; in the test on Colon cancer organoid [2] it was 78.2%; in the test with Colon cancer organoid [3], 135%; in the test on Colon cancer organoid [4], 75.1%; in the test on Colon cancer organoid [5], 82%.
As for `COc1cc(Nc2ncc3c(n2)-c2ccc(Cl)cc2C(c2c(F)cccc2OC)=NC3)ccc1C(=O)O` [ALISERTIB], the viability at 10 µM with Colon cancer organoid [1] stood at 7.3%; in the test with Colon cancer organoid [2], 16.2%; in the test on Colon cancer organoid [3], 32.9%; in the test with Colon cancer organoid [4], 46.6%; in the test on Colon cancer organoid [5] it was 13.7%.
For `CC(C)[C@H](C(=O)Nc1ccc(C(=O)NO)cc1)c1ccccc1` [AR-42], in that order: 23.6%, 34.5%, 210%, 131% and 263%.
Regarding `Cc1cnc(-c2cc(Cl)ccc2F)cc1-n1c(=O)n(CC(N)=O)c2ccccc21` [Al11], the viability at 10 µM stood at 31.3% in the test on Colon cancer organoid [1]; 104% with Colon cancer organoid [2]; 120% with Colon cancer organoid [3]; 66.2% in the test on Colon cancer organoid [4]; 94.6% in the test on Colon cancer organoid [5].
As for `Cc1ccccc1Oc1cc(-n2c(=O)cc(C(F)(F)F)[nH]c2=O)c2ccccc2c1Cl` [BAY-069], the viability at 10 µM is 40.6% in the test with Colon cancer organoid [1]; 167% in the test with Colon cancer organoid [2]; 116% in the test with Colon cancer organoid [3]; 51.3% with Colon cancer organoid [4]; 56.6% in the test with Colon cancer organoid [5].
For `Cn1c(-c2csc(C3CCN(CC4=NC5N=CC=CC5N4)CC3)n2)nc2ccccc21` (stereo not given) [BAY-070], in that order: 44.6%, 90.7%, 136%, 105% and 73.4%.
For `NS(=O)(=O)c1cc(NC(=O)C2(c3ccccc3Cl)CC2)ccc1Oc1cccc(Cl)c1` [BAY-207] the same measures were 34.8%, 86.8%, 78.6%, 61% and 42.5%.
Take `CNCc1ccccc1-c1csc([C@@H](C)Nc2nc(C)nc3cc(OC)c(OC)cc23)c1` [BAY-293]: the viability at 10 µM was determined as 16.6% with Colon cancer organoid [1]; 64% in the test with Colon cancer organoid [2]; 69.8% in the test on Colon cancer organoid [3]; 50.2% in the test on Colon cancer organoid [4]; 35% with Colon cancer organoid [5].
As to `CNCc1ccccc1-c1csc([C@H](C)Nc2nc(C)nc3cc(OC)c(OC)cc23)c1` [BAY-294], the viability at 1 µM stood at 66.5% in the test on Colon cancer organoid [1]; 102% with Colon cancer organoid [2]; 137% with Colon cancer organoid [3]; 89% with Colon cancer organoid [4]; 46.4% in the test on Colon cancer organoid [5].
`Cc1cc(NC(=O)c2cccc(S(F)(F)(F)(F)F)c2)cc(-n2ccn3nc(-c4cccnc4)cc23)c1` [BAY-309]: the viability at 10 µM with Colon cancer organoid [1] stood at 49.9%; with Colon cancer organoid [2] it was 87.3%; with Colon cancer organoid [3] it was 159%; with Colon cancer organoid [4] it was 61.2%; in the test with Colon cancer organoid [5] it was 65%.
For `O=C(N1CCS(=O)(=O)CC1)N1C[C@H](c2ccc(OC(F)(F)F)cc2)C[C@H](c2nc(C3CC3)no2)C1` [BAY-386], the viability at 10 µM in the test on Colon cancer organoid [1] stood at 53.2%; with Colon cancer organoid [2] it was 103%; with Colon cancer organoid [3] it was 120%; with Colon cancer organoid [4] it was 74.8%; in the test on Colon cancer organoid [5], 55.9%.
As for `O[C@]1(C(F)(F)F)CCCC[C@H]1Nc1ccc(F)cc1` [BAY-390], the viability at 1 µM in the test on Colon cancer organoid [1] was determined as 34%; in the test on Colon cancer organoid [2], 92.1%; in the test with Colon cancer organoid [3], 153%; in the test on Colon cancer organoid [4], 51%; in the test on Colon cancer organoid [5], 64.2%.
Take `Cc1c(N2CCNCC2)nc2ccc(Br)cc2c1C(=O)NC[C@H](CCC(=O)O)c1ccccc1Cl` [BAY-403]: the viability at 10 µM turned out to be 29.6% in the test with Colon cancer organoid [1]; 85.5% in the test with Colon cancer organoid [2]; 60.5% in the test with Colon cancer organoid [3]; 87.2% in the test on Colon cancer organoid [4]; 48% in the test with Colon cancer organoid [5].
For `CN(C)c1ncnc(-c2ccc3nc(Nc4cc(CN5CCN(C(=O)CC(F)(F)F)CC5)ccn4)[nH]c3c2)c1Cl` [BAY-440] the same measures were 68.9%, 114%, 160%, 92.8% and 78.1%.
For `Cc1noc([C@H]2C[C@@H](c3ccc(C(F)(F)F)cc3)CN(C(=O)N3CCS(=O)(=O)C3)C2)n1` [BAY-448], in that order: 49%, 99.7%, 124%, 95.1% and 58%.
Consider `CC1=C(C#N)C(c2ccc3[nH]nc(C)c3c2)C(C#N)=C(C)N1` [BAY-474], for which the viability at 10 µM with Colon cancer organoid [1] was determined as 7.78%; in the test on Colon cancer organoid [2], 90.1%; with Colon cancer organoid [3] it was 115%; in the test on Colon cancer organoid [4], 81.4%; in the test with Colon cancer organoid [5] it was 22.9%.
In the case of `Cc1c[nH]c2nccc(Oc3c(F)cc(Nc4cc(Cl)nc(N)n4)cc3F)c12` [BAY-549], the viability at 1 µM is 30.6% with Colon cancer organoid [1]; 96.4% in the test with Colon cancer organoid [2]; 124% in the test on Colon cancer organoid [3]; 74.7% in the test with Colon cancer organoid [4]; 62.9% in the test on Colon cancer organoid [5].
For `Cc1c(NC(=O)c2cc(C(N)=O)nc3cc(F)ccc23)c(C(F)(F)F)nn1Cc1ccc(C(C)(C)C)cc1` [BAY-588] the same measures were 31.3%, 45.5%, 111%, 104% and 43.1%.
As to `CC(=O)C1=C(C)N(c2cccc(C(F)(F)F)c2)C(=O)N[C@H]1c1ccc(C#N)nc1` [BAY-677], the viability at 10 µM in the test with Colon cancer organoid [1] is 57.5%; with Colon cancer organoid [2], 107%; in the test with Colon cancer organoid [3] it was 93.5%; in the test on Colon cancer organoid [4], 75%; in the test on Colon cancer organoid [5], 51.7%.
Take `CC(=O)C1=C(C)N(c2cccc(C(F)(F)F)c2)C(=O)N[C@@H]1c1ccc(C#N)nc1` [BAY-678]: the viability at 10 µM in the test on Colon cancer organoid [1] was 41.2%; with Colon cancer organoid [2] it was 103%; in the test with Colon cancer organoid [3] it was 108%; in the test on Colon cancer organoid [4] it was 75.6%; in the test on Colon cancer organoid [5], 61.8%.
Regarding `Cc1nc(C2CCN(C(=O)c3ccc(OC(F)(F)F)cc3N)CC2)c2ncc(N3CCN(C)CC3)cc2n1` [BAY-693], the viability at 10 µM in the test on Colon cancer organoid [1] turned out to be 32.1%; with Colon cancer organoid [2] it was 76.4%; in the test with Colon cancer organoid [3] it was 119%; in the test with Colon cancer organoid [4], 53.6%; in the test with Colon cancer organoid [5] it was 46.5%.
For `O=C(O)[C@@H]1[C@@H](Cn2nnc3ccccc3c2=O)CC[C@H]1C(=O)c1ccc(OCCC2CCOCC2)cc1` [BAY-694], in that order: 56%, 102%, 146%, 78.7% and 53%.
With `O=C(NCc1ncc(C(F)(F)F)cc1Cl)c1ccc2c(c1)C1(CCS(=O)(=O)CC1)[C@H](C1CC1)N2S(=O)(=O)c1ccc(F)cc1` [BAY-784], the viability at 1 µM was 55.8% in the test with Colon cancer organoid [1]; 129% in the test with Colon cancer organoid [2]; 157% in the test on Colon cancer organoid [3]; 127% with Colon cancer organoid [4]; 74.1% with Colon cancer organoid [5].
For `O=C(NCc1ncc(C(F)(F)F)cc1Cl)c1ccc2c(c1)C1(CCS(=O)(=O)CC1)[C@@H](C1CC1)N2S(=O)(=O)c1ccc(F)cc1` [BAY-786], the viability at 10 µM in the test on Colon cancer organoid [1] is 53%; in the test on Colon cancer organoid [2] it was 115%; in the test with Colon cancer organoid [3] it was 138%; with Colon cancer organoid [4], 106%; in the test with Colon cancer organoid [5] it was 61.5%.
In the case of `Cc1cc(C)c(-n2ccn3nc(-c4cccnc4)cc23)cc1NC(=O)c1cc(C#N)cc(S(F)(F)(F)(F)F)c1` [BAY-826], the viability at 1 µM with Colon cancer organoid [1] was found to be 58.7%; with Colon cancer organoid [2], 145%; in the test on Colon cancer organoid [3] it was 102%; in the test with Colon cancer organoid [4] it was 64.2%; with Colon cancer organoid [5], 58.2%.
For `Cc1c(NC(=O)c2cc(C(N)=O)nc3cc(F)ccc23)c(C(F)(F)F)nn1Cc1ccc(C#N)cc1` [BAY-876], the viability at 10 µM came out at 5.75% in the test with Colon cancer organoid [1]; 16.3% in the test with Colon cancer organoid [2]; 43.8% in the test on Colon cancer organoid [3]; 39.6% in the test with Colon cancer organoid [4]; 15% with Colon cancer organoid [5].
Take `CN1CCN(c2cnc3c(C4CCN(C(=O)c5ccc(OC(F)(F)F)cc5N)CC4)ncnc3c2)CC1` [BAY-885]: the viability at 10 µM is 21.7% with Colon cancer organoid [1]; 114% with Colon cancer organoid [2]; 115% in the test with Colon cancer organoid [3]; 78% with Colon cancer organoid [4]; 59.7% with Colon cancer organoid [5].
For the compound `O=C(Nc1ccc(Oc2ccc(F)cc2)cc1)N1CCc2ncccc2[C@H]1c1ccc(F)cc1` [BAY-897], the viability at 1 µM with Colon cancer organoid [1] was 32.3%; in the test on Colon cancer organoid [2], 80%; in the test on Colon cancer organoid [3], 111%; with Colon cancer organoid [4], 61.9%; in the test with Colon cancer organoid [5], 47.5%.

The values above are taken from ChEMBL document CHEMBL5608113, “Targeting of CAF-induced therapy resistance in CRC organoid-stroma co-cultures” (2024).
